18 compounds from patent publication US5461036A, “Spicamycin derivatives and their use as anticancer agents” (priority 1991, dated 1995) can be followed below.

One data set in a line: in vivo. Particulars: mouse, in vivo; intravenous, continuous 5 days, nude mice; maximum dose at which no animal was dead within 2 weeks; read-out: Maximum tolerated dose. More on the design: species or system nude mice (BALB/c nu/nu). As to the method: (1) Measurement of maximum tolerated dose (MTD) of the spicamycin derivatives in nude mice
The spicamycin derivative was dissolved in dimethylsulfoxide (DMSO) and Cremophor EL® at the same volume as DMSO was added. Physiological saline was added so that the concentration of DMSO and Cremophor EL® was finally adjusted to 1%, respectively, and thus injection liquids of spicamycin derivative in a variety of concentrations were prepared. […] The maximum dose at which no animal was dead was defined as the MTD of the respective derivatives.

The subject of data set [1] is human colon cancer (COL-1). The class given is in vivo, mouse. As to conditions: for TGIR (tumor growth inhibition rate, maximum) / minTx (relative tumor volume when reduced to the minimum): COL-1 s.c. in nude mice, at MTD; for TGIR (tumor growth inhibition rate, maximum): TGIR=(1-Tx/Cx)×100, maximum during about 3 weeks; for minTx (relative tumor volume when reduced to the minimum): minimum throughout the test period. The procedure: (2) Method for measuring the antitumor effect on human colon cancer (COL-1)
COL-1, a human colon cancer, was transplanted subcutaneously into nude mice. When the tumor had grown to a volume of about 100 mm^3, the nude mice were divided into groups of 5 animals so that the average tumor volumes of respective groups were equalized. The respective spicamycin derivatives were administered to test groups at their MTDs, while physiological saline (solvent) containing 1% DMSO and 1% Cremophor EL® was administered to the control group. […] RV is expressed as RV =Vn/Vo where Vn is the tumor volume on day n and Vo is the initial tumor volume at the time treatment was commenced.

Where [2] appears, read: /minimum effective dose (effective: TGIR≥50).

Molecules are shown by their SMILES. Where two headings read alike, the source gives them in different places.

Consider `CCCCCCCCCCC[C@H](O)CC(=O)NCC(=O)NC1C(O)C(O)C(Nc2ncnc3[nH]cnc23)OC1C(O)CO` (single isomer, unassigned) [SPK274, 6-[4'-N-(N'-(s)-3-hydroxytetradecanoylglydyl)spicaminyl-amino]purine], for which, in “in vivo”, the MTD at 336 h worked out at 24 mg/kg/day. In data set [1], the “TGIR (tumor growth inhibition rate, maximum)” value is listed as 92 and the “minTx (relative tumor volume when reduced to the minimum)” value came to 0.16. Besides, in data set [1] (mouse, in vivo), the Therapeutic index is recorded as 4.

Turning to `CC(C)CCCCCCCCC(=O)NCC(=O)N[C@@H]1[C@@H](O)[C@@H](O)[C@@H](Nc2ncnc3[nH]cnc23)O[C@H]1C(O)CO` (stereo partly shown) [SPK9, 6-[4'-N-(N'-10-methylundecanoylglycyl)spicaminyl-amino]purine], the MTD at 336 h in “in vivo” is 6 mg/kg/day. Moreover, in data set [1], the “TGIR (tumor growth inhibition rate, maximum)” value is reported as 99 and the “minTx (relative tumor volume when reduced to the minimum)” value was found to be 0.05. For the same compound, the Therapeutic index in data set [1] (mouse, in vivo) is listed as 4.

As to `C=CCCCCCCCCCC(=O)NCC(=O)N[C@@H]1[C@@H](O)[C@@H](O)[C@@H](Nc2ncnc3[nH]cnc23)O[C@H]1C(O)CO` (stereo partly shown) [SPK44, 6-[4 '-N-(N'-11-dodecenoylglycyl)spicaminyl-amino]purine], the MTD at 336 h in the data set “in vivo” turned out to be 4 mg/kg/day. The same compound yielded a Therapeutic index in data set [1] (setting [2]) of 4. In data set [1], the “TGIR (tumor growth inhibition rate, maximum)” value worked out at 94 and the “minTx (relative tumor volume when reduced to the minimum)” value came to 0.16.

Turning to `O=C(CCCCCCCCCCBr)NCC(=O)N[C@@H]1[C@@H](O)[C@@H](O)[C@@H](Nc2ncnc3[nH]cnc23)O[C@H]1C(O)CO` (stereo partly shown) [SPK64, 6-[4'-N-(N'-11-bromoundecanoylglycyl)spicaminyl-amino]purine], the MTD at 336 h in “in vivo” was 18 mg/kg/day. For the same compound, in data set [1], the “TGIR (tumor growth inhibition rate, maximum)” value stood at 95. The Therapeutic index in data set [1] (mouse, in vivo) is reported as 4.

For the compound `CCCCCCCCC/C=C/C(=O)NCC(=O)N[C@@H]1[C@@H](O)[C@@H](O)[C@@H](Nc2ncnc3[nH]cnc23)O[C@H]1C(O)CO` (stereo partly drawn) [SPK86, 6-[4'-N-(N'-trans-2-dodecenoylglycyl)spicaminyl-amino]purine], in the data set “in vivo”, the MTD at 336 h worked out at 18 mg/kg/day. Also, the “TGIR (tumor growth inhibition rate, maximum)” value in data set [1] turned out to be 86.

Take `CCCCCCCCCCCCCCC(O)C(=O)NCC(=O)NC1C(O)C(O)C(Nc2ncnc3[nH]cnc23)OC1C(O)CO` (stereo not shown) [SPK112, 6-[4'-N-(N'-2-hydroxyhexadecanoylglycyl)spicaminyl-amino]purine]: in “in vivo”, the MTD at 336 h was 0.85 mg/kg/day. In data set [1] (setting [2]), this compound returned a Therapeutic index of 4. The “TGIR (tumor growth inhibition rate, maximum)” value in data set [1] is on record as 82.

Turning to `CCCCCCCCCCCCCC(O)CC(=O)NCC(=O)NC1C(O)C(O)C(Nc2ncnc3[nH]cnc23)OC1C(O)CO` (stereo not shown) [SPK115, 6-[4'-N-(N'-3-hydroxyhexadecanoylglycyl)-spicaminyl-amino]purine], the MTD at 336 h in “in vivo” came to 3 mg/kg/day. The same compound came in with a Therapeutic index in data set [1] (setting [2]) of 4. In addition, in data set [1], the “TGIR (tumor growth inhibition rate, maximum)” value was determined as 99 and the “minTx (relative tumor volume when reduced to the minimum)” value was 0.08.

Turning to `O=C(CCCCCCCCCCCCl)NCC(=O)N[C@@H]1[C@@H](O)[C@@H](O)[C@@H](Nc2ncnc3[nH]cnc23)O[C@H]1C(O)CO` (stereo partly shown) [SPK132, 6-[4'-N-(N'-12-chlorododecanoylglycyl)spicaminyl-amino]purine], the MTD at 336 h in “in vivo” was found to be 12 mg/kg/day. Besides, in data set [1], the “TGIR (tumor growth inhibition rate, maximum)” value is 98 and the “minTx (relative tumor volume when reduced to the minimum)” value was determined as 0.08. Moreover, the Therapeutic index in data set [1] (mouse, in vivo) turned out to be 4.

Consider `CCCCCCCCCCCCCCC(Cl)C(=O)NCC(=O)NC1C(O)C(O)C(Nc2ncnc3[nH]cnc23)OC1C(O)CO` (stereo not shown) [SPK135, 6-[4'-N-(N'-2-chlorohexadecanoylglycyl)spicaminylamino]purine], for which the MTD at 336 h in “in vivo” was determined as 24 mg/kg/day. The “TGIR (tumor growth inhibition rate, maximum)” value in data set [1] is recorded as 93. The Therapeutic index in data set [1] (mouse, in vivo) was 4.

With `CC(C)CCCCCCCCCCC(=O)NCC(=O)N[C@@H]1[C@@H](O)[C@@H](O)[C@@H](Nc2ncnc3[nH]cnc23)O[C@H]1C(O)CO` (stereo partly shown) [SPK136, 6-[4'-N-(N'-12-methyltridecanoylglycyl)spicaminyl-amino]purine], the MTD at 336 h in the data set “in vivo” is 2 mg/kg/day. Moreover, the Therapeutic index in data set [1] (setting [2]) turned out to be 4. The “TGIR (tumor growth inhibition rate, maximum)” value in data set [1] is given as 84.

On to `C=CCCCCCCCCCCC(=O)NCC(=O)N[C@@H]1[C@@H](O)[C@@H](O)[C@@H](Nc2ncnc3[nH]cnc23)O[C@H]1C(O)CO` (stereo partly shown) [SPK142, 6-[4'-N-(N'-12-tridecenoylglycyl)spicaminyl-amino]purine], for which the MTD at 336 h in “in vivo” was found to be 6 mg/kg/day. Further, in data set [1], the “TGIR (tumor growth inhibition rate, maximum)” value worked out at 99 and the “minTx (relative tumor volume when reduced to the minimum)” value was determined as 0.09. Besides, in data set [1] (mouse, in vivo), the Therapeutic index is recorded as 4.

Consider `CCCCCC/C=C\CCCCCCCC(=O)NCC(=O)N[C@@H]1[C@@H](O)[C@@H](O)[C@@H](Nc2ncnc3[nH]cnc23)O[C@H]1C(O)CO` (stereo partly drawn) [SPK148, 6-[4,-N-(N'-cis-9-hexadecenoylglycyl)spicaminyl-amino]purine], for which, in the data set “in vivo”, the MTD at 336 h worked out at 3.4 mg/kg/day. In data set [1] (setting [2]), this compound displayed a Therapeutic index of 4. In data set [1], the “TGIR (tumor growth inhibition rate, maximum)” value was determined as 94 and the “minTx (relative tumor volume when reduced to the minimum)” value was 0.21.

As for `O=C(CCCCCCCCCCCBr)NCC(=O)N[C@@H]1[C@@H](O)[C@@H](O)[C@@H](Nc2ncnc3[nH]cnc23)O[C@H]1C(O)CO` (stereo partly shown) [SPK152, 6-[4'-N-(N'-12-bromododecanoylglycyl)spicaminyl-amino]purine], in the data set “in vivo”, the MTD at 336 h turned out to be 36 mg/kg/day. Moreover, in data set [1], the “TGIR (tumor growth inhibition rate, maximum)” value came out at 100 and the “minTx (relative tumor volume when reduced to the minimum)” value amounted to 0.03. This compound returned a Therapeutic index in data set [1] (mouse, in vivo) of 8.

Consider `CCCCCCCCCCC/C=C/C(=O)NCC(=O)N[C@@H]1[C@@H](O)[C@@H](O)[C@@H](Nc2ncnc3[nH]cnc23)O[C@H]1C(O)CO` (stereo partly drawn) [SPK156, 6-[4'-N-(N'-trans-2-tetradecenoylglycyl)spicaminyl-amino]purine], for which the MTD at 336 h in “in vivo” is 3 mg/kg/day. In addition, the “TGIR (tumor growth inhibition rate, maximum)” value in data set [1] is reported as 92. The compound further returned a Therapeutic index in data set [1] (mouse, in vivo) of 4.

As for `O=C(CCCCCCCCCCCCCCCF)NCC(=O)NC1C(O)C(O)C(Nc2ncnc3[nH]cnc23)OC1C(O)CO` (stereo not shown) [SPK157, 6-[4,-N-(N'-16-fluorohexadecanoylglycyl)spicaminyl-amino]purine], the MTD at 336 h in “in vivo” is 1.6 mg/kg/day. Besides, the Therapeutic index in data set [1] (setting [2]) is reported as 4. Further, in data set [1], the “TGIR (tumor growth inhibition rate, maximum)” value came to 98 and the “minTx (relative tumor volume when reduced to the minimum)” value worked out at 0.11.

For the compound `CCCCCCCCCCC(F)C(=O)NCC(=O)NC1C(O)C(O)C(Nc2ncnc3[nH]cnc23)OC1C(O)CO` (stereo not shown) [SPK159, 6-[4'-N-(N'-2-fluorododecanoylglycyl)spicaminyl-amino]purine], the MTD at 336 h in “in vivo” amounted to 24 mg/kg/day. Further, in data set [1], the “TGIR (tumor growth inhibition rate, maximum)” value is on record as 96. Further, the Therapeutic index in data set [1] (mouse, in vivo) is 4.

As to `O=C(CCCCCCCCCCI)NCC(=O)NC1C(O)C(O)C(Nc2ncnc3[nH]cnc23)OC1C(O)CO` (stereo not shown) [SPK165, 6-[4'-N-(N'-11-iodoundecanoylglycyl)spicaminyl-amino]purine], the MTD at 336 h in “in vivo” amounted to 24 mg/kg/day. For the same compound, the “TGIR (tumor growth inhibition rate, maximum)” value in data set [1] was 86.

As for `N#CCCCCCCCCCCCCCCCC(=O)NCC(=O)NC1C(O)C(O)C(Nc2ncnc3[nH]cnc23)OC1C(O)CO` (stereo not shown) [SPK177, 6-[4'-N-(N'-16-cyanohexadecanoylglycyl)-spicaminyl-amino]purine], the MTD at 336 h in the data set “in vivo” came out at 13.5 mg/kg/day. For the same compound, the “TGIR (tumor growth inhibition rate, maximum)” value in data set [1] stood at 99. The compound further gave a Therapeutic index in data set [1] (mouse, in vivo) of 4.
